Assay results from the supplement of paper PMC13380429.

Legend:
Conditions in all cases: 72 h
[1] = test system: Caco-2; test: cell viability relative to DMSO; higher = less toxic
[2] = test system: Calu-3; test: as above
[3] = test system: HepG2; test: as above
[4] = test system: U2OS; test: as above
[5] = test system: Vero E6; test: as above
[6] = test system: Caco-2; test: relative viability EC50 (midpoint between 100% and the lowest measured viability); higher = less toxic
[7] = test system: Calu-3; test: as above
[8] = test system: U2OS; test: as above
[9] = test system: Vero E6; test: as above
[10] = test system: Caco-2; test: drug sensitivity score (DSS) for viability; higher = more toxic; extreme values may be limits of the assay
[11] = test system: Calu-3; test: as above
[12] = test system: HepG2; test: as above
[13] = test system: U2OS; test: as above
[14] = test system: Vero E6; test: as above
[15] = test system: HepG2; test: relative viability EC50 (midpoint between 100% and the lowest measured viability); higher = less toxic

Row | Structure (SMILES) | cell viability ([1]; 1 nM) | cell viability ([1]; 10 nM) | cell viability ([1]; 100 nM) | cell viability ([1]; 1000 nM) | cell viability ([1]; 10000 nM) | cell viability ([2]; 1 nM) | cell viability ([2]; 10 nM) | cell viability ([2]; 100 nM) | cell viability ([2]; 1000 nM) | cell viability ([2]; 10000 nM) | cell viability ([3]; 1 nM) | cell viability ([3]; 10 nM) | cell viability ([3]; 100 nM) | cell viability ([3]; 1000 nM) | cell viability ([3]; 10000 nM) | cell viability ([4]; 1 nM) | cell viability ([4]; 10 nM) | cell viability ([4]; 100 nM) | cell viability ([4]; 1000 nM) | cell viability ([4]; 10000 nM) | cell viability ([5]; 1 nM) | cell viability ([5]; 10 nM) | cell viability ([5]; 100 nM) | cell viability ([5]; 1000 nM) | cell viability ([5]; 10000 nM) | relative viability EC50 [6] | relative viability EC50 [7] | relative viability EC50 [8] | relative viability EC50 [9] | drug sensitivity score [10] | drug sensitivity score [11] | drug sensitivity score [12] | drug sensitivity score [13] | drug sensitivity score [14] | relative viability EC50 [15]
1 | Cn1cc(-c2cnc3ccc4ccc(CS(=O)(=O)NCc5ccccn5)cc4c(=O)c3c2)cn1 [MK-8033] | 96.4% | 95.6% | 91.8% | 97.9% | 75.1% | 99.8% | 87.8% | 105% | 94.5% | 99.9% | 113% | 93.3% | 110% | 95.3% | 53.8% | 97.6% | 98.7% | 98.7% | 101% | 91.7% | 104% | 98.8% | 104% | 99.4% | 97.7% | > 10 µM | > 10 µM | > 10 µM | > 10 µM | 1.2 | 0 | 3.2 | 0 | 0 | –
2 | CN(C)CCCNC(=O)c1ccc(-c2cc(O)c3ncccc3c2)cc1 [ML324] | 107% | 94.3% | 107% | 91.7% | 80.6% | 105% | 93.8% | 106% | 94.1% | 83.4% | 88.7% | 103% | 88.2% | 104% | 35.7% | 105% | 98.9% | 107% | 98.5% | 85% | 98.5% | 100% | 96.2% | 101% | 58.1% | > 10 µM | > 10 µM | > 10 µM | – | 1.4 | 0.9 | 3.2 | 0.4 | 2 | 3.52 µM
3 | CC1(C)CCC[C@]2(C)[C@H]3CC(=O)O[C@]3(C)CC[C@@H]12 [Sclareolide (Norambreinolide)] | 95.7% | 96.6% | 92.7% | 102% | 88.5% | 100% | 104% | 99.4% | 107% | 87.6% | 106% | 99.1% | 108% | 101% | 100% | 100% | 100% | 97% | 99.5% | 99.5% | – | – | – | – | – | > 10 µM | > 10 µM | > 10 µM | – | 0 | 0 | 0 | 0 | – | > 10 µM
4 | CN(C)CCCO[C@@H]1[C@H]2OC(C)(C)O[C@H]2O[C@@H]1[C@H](O)CO [amiprilose] | 107% | 86.8% | 101% | 95.1% | 97.3% | 98.7% | 102% | 98% | 101% | 100% | 91.3% | 102% | 97.3% | 99.6% | 85.8% | 102% | 99.8% | 100% | 103% | 101% | – | – | – | – | – | > 10 µM | > 10 µM | > 10 µM | – | 0 | 0 | 0.2 | 0 | – | > 10 µM
5 | Nc1ccc(F)cc1NC(=O)c1ccc(CNC(=O)/C=C/c2cccnc2)cc1 [chidamide] | 95.3% | 104% | 97.1% | 85.1% | 55.9% | 113% | 101% | 89.4% | 49.1% | 35.1% | 97.6% | 105% | 91.4% | 69.4% | 28.1% | 101% | 103% | 104% | 77.6% | 9.8% | 95.6% | 99.7% | 95.4% | 100% | 67.5% | – | 0.365 µM | 1.56 µM | – | 4.1 | 10.7 | 7.4 | 8.4 | 1.4 | 1.17 µM
6 | CCCC(=O)OCOC(=O)C1=C(C)NC(C)=C(C(=O)OC)C1c1cccc(Cl)c1Cl (stereo not given) [cleviprex] | 97.6% | 109% | 99.1% | 102% | 87% | 101% | 92% | 105% | 108% | 118% | 97.9% | 97.8% | 110% | 111% | 99.8% | 98.8% | 104% | 100% | 107% | 95.3% | – | – | – | – | – | > 10 µM | > 10 µM | > 10 µM | – | 0.1 | 0 | 0 | 0 | – | > 10 µM
